According to patent publication US7951832B2, “Pyrazole derivatives as kinase inhibitors” (Burnham Institute for Medical Research, priority 2007, dated 2011):

Tests used:
[1] = biological target: PI3 K P110α (Homo sapiens, UniProt P42336); test: Inhibition of PI3K (P110α); type: biochemical; conditions: values printed without % sign, read as IC50, read-out: PI3 K (% at 25 μM, or IC50), P110α
[2] = biological target: mTOR (Homo sapiens, UniProt P42345); test: Inhibition of mTOR; type: biochemical; conditions: for inhibition at 50 µM: read-out: mTOR (Inhibition % at 50 μM, or IC50)

PI3 K P110α, sequence (P42336 whole entry): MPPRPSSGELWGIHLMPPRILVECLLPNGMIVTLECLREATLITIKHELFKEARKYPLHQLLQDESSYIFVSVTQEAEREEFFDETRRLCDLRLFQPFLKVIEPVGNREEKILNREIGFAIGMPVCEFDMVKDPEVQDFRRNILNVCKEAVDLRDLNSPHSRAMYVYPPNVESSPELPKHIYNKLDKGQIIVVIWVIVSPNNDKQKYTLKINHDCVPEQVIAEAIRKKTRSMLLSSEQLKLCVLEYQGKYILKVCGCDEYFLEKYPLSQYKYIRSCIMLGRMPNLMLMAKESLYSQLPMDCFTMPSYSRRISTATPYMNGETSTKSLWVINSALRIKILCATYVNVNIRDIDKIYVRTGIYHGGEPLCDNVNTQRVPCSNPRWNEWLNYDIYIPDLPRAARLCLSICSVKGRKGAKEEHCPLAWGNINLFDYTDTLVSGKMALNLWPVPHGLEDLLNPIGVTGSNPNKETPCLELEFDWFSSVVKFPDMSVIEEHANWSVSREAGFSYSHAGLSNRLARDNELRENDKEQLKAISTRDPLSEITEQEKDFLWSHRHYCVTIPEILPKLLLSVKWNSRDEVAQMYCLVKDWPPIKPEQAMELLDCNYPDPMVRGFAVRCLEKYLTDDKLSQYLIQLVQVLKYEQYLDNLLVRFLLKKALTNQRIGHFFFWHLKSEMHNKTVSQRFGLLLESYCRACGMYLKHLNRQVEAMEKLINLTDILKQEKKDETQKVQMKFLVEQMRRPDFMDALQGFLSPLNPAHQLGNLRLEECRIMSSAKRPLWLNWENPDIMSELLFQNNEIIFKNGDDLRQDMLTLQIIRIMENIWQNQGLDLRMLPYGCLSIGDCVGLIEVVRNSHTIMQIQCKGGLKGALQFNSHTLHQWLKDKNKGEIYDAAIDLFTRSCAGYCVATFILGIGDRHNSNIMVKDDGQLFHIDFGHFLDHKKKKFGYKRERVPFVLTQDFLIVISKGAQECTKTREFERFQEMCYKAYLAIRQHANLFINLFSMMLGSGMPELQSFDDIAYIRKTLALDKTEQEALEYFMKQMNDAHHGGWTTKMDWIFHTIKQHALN
PI3 K P110α, sequence (P27986 whole entry partner): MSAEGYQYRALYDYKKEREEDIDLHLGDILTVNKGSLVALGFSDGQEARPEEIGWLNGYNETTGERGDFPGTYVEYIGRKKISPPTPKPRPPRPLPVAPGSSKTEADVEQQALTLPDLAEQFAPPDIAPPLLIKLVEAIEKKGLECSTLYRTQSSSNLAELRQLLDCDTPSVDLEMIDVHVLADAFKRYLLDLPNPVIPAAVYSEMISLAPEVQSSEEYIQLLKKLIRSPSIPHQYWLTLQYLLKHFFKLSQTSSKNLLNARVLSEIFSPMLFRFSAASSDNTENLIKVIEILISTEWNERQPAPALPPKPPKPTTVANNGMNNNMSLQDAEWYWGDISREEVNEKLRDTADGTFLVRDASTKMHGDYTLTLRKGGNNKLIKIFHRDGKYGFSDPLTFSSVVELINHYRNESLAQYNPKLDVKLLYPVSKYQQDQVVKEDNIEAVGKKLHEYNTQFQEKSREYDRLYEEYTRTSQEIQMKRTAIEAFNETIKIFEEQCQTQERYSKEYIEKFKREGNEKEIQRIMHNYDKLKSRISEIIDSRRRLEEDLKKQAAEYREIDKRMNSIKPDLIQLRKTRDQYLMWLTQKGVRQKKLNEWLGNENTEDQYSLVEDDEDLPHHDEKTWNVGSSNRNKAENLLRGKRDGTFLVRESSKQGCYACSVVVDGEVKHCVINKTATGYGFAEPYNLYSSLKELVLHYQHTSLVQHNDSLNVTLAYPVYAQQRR

IC50 [1]	inhibition at 50 µM [2]	IC50 [2]	SMILES
83 nM	9%		Nc1ccc(C#Cc2n[nH]c3ccccc23)cc1
	6%		Fc1cc(F)cc(C#Cc2n[nH]c3ccccc23)c1
62 nM	46%	> 100000 nM	Cn1cncc1C#Cc1n[nH]c2ccccc12
	-3%		FC(F)(F)c1cc(C#Cc2n[nH]c3ccccc23)cc(C(F)(F)F)c1
	4%		COC(=O)c1ccc2c(C#Cc3cncn3C)n[nH]c2c1
	9%		Nc1cccc(C#Cc2n[nH]c3ccccc23)c1
	3%		Cn1cncc1C#Cc1n[nH]c2cc(C(=O)NCc3cc4ccccc4[nH]3)ccc12
	-14%		Cn1cncc1C#Cc1n[nH]c2cc(C(=O)NCc3cccs3)ccc12
	-5%		Cn1cncc1C#Cc1n[nH]c2cc(C(=O)NCc3ccco3)ccc12
	3%		NCCCCCNC(=O)c1ccc(C#Cc2n[nH]c3ccccc23)cc1
	7%		C(#Cc1n[nH]c2ncccc12)c1ccccn1

The next lines start with the compound.

SMILES	IC50 [1]	inhibition at 50 µM [2]	IC50 [2]
C(#Cc1n[nH]c2ccccc12)c1ccccc1		6%	
C(#Cc1n[nH]c2ccccc12)c1cccnc1		34%	
C(#Cc1n[nH]c2ccccc12)c1ccncc1		30%	
O=[N+]([O-])c1ccc2c(C#Cc3ccccc3)n[nH]c2c1		-1%	
COc1ccc2cc(C#Cc3n[nH]c4ccccc34)ccc2c1		5%	
C(#Cc1n[nH]c2ccccc12)c1ccsc1		7%	
C(#Cc1n[nH]c2ccccc12)c1ccccn1		13%	
Cn1cncc1C#Cc1n[nH]c2cc(C(=O)O)ccc12		24%	
N#Cc1ccc(C#Cc2n[nH]c3ccccc23)cc1		1%	
C(#CC1CCCC1)c1n[nH]c2ccccc12		3%	
C(#CC1CC1)c1n[nH]c2ccccc12		2%	
COc1ccc(C#Cc2n[nH]c3ccccc23)cc1		5%	
COc1ccc(C(NC(=O)c2ccc3c(C#Cc4cncn4C)n[nH]c3c2)c2ccncc2)cc1 (stereo not shown)	82 nM		
Cc1ccc2[nH]c(C(C)NC(=O)c3ccc4c(C#Cc5cncn5C)n[nH]c4c3)nc2c1 (stereo not shown)		-7%	
Cn1cncc1C#Cc1n[nH]c2cc(C(=O)NC(c3ccncc3)c3ccc(Cl)cc3)ccc12 (stereo not shown)		-27%	
Cn1cncc1C#Cc1n[nH]c2cc(C(=O)NC34CC5CC(CC(C5)C3)C4)ccc12		-11%	
Cn1cncc1C#Cc1n[nH]c2cc(C(=O)NCc3ccccn3)ccc12		-17%	
O=C(O)c1ccc(C#Cc2n[nH]c3ccccc23)cc1			31000 nM
CC(C)(C)OC(=O)NCCCCCNC(=O)c1ccc(C#Cc2n[nH]c3ccccc23)cc1		-6%	
C(#Cc1n[nH]c2ncccc12)c1ccncc1		15%	
